Experimental findings from article PMC9657303, “Phenylethanoid and Phenylmethanoid Glycosides from the Leaves of Ligustrum robustum and Their Bioactivities” (Molecules, 2022) are described below.

Broadly, the IC50 is the midpoint of a concentration-inhibition curve. A high value points to weaker potency in that assay.

Structures are written as SMILES.

The target of one assay is T1, FAS (Gallus gallus, UniProt P12276).
T1 construct: isolated from chicken liver; from tissue; host or cells: chicken liver
Put plainly: FAS inhibitory activity. The assay is classed as biochemical, chicken. The settings on record: mean ± SD (n = 3); NA: no activity. Here is the method: S1. Determination of bioactivities
S1.1. Determination of FAS inhibitory activity […]
diluted with potassium phosphate buffer (0.1 M, pH 7.0). Sample solution (100 µL, 20-2000 μM, 37 °C) and FAS substrates (1.8 mL, 37 °C) were mixed in a cuvette, and then FAS solution (100 µL, 37 °C, isolated from chicken liver and kept in ice-bath before use) was added. The absorbance of reaction mixture was monitored by a UV-vis spectrophotometer at340 nm in 1 min. The inhibitory effect was calculated by the following equation: FAS inhibition (%) = (Acontrol-Asample)/Acontrol× 100%, where Acontrolrepresented the FAS activity in the control group (phosphate buffer instead of sample solution), Asamplerepresented the FAS activity in the sample groups. The FAS activity was calculated as (A0 -A1)/1 min, in which A0 was the absorbance of the reaction mixture when the FAS was added, and A1 was the absorbance of the reaction mixture after reaction 1 min. Orlistat was used as the positive control.
FAS substrates: 0.1 M potassium phosphate buffer (pH 7.0), 1 mM ethylene-diaminetetraacetic acid (EDTA), 1 mM dithiothreitol, 3 µM acetyl-coenzyme A, 10 µM […], 35 µM NADPH. […]

A further assay relates to α-amylase. The experiment in a line: α-amylase inhibitory activity. The assay is classed as biochemical. The settings on record: for α-Amylase Inhibition at 0.1 mM: mean ± SD (n = 3), NA: no activity; for α-amylase inhibitory effects (in words): weaker than the positive control acarbose. How it is done: S1.3. Determination of α-amylase inhibitory activity
Phosphate buffer (20 mM, pH 6.9, containing 6 mM NaCl) was used as the […]
µL, 1%, w/v) were mixed and incubated in a 96-well microplate at37 °C for 10 min.
Then, α-amylase solution (50 µL, 0.2 U/mL) was added and the mixture was incubated at 37 °C for an additional 10 min. The reaction was stopped by addition of […]
microplate was immediately heated in 95 °C water bath for 10 min. When the reaction solution cooled to room temperature, allsamples were diluted by adding distilled water (50 µL), and then their absorbance was measured using a microplate reader at […]
starch solution) at 540 nm, thus the inhibitory activity was calculated as (Acontrol-Asample)/Acontrol×100%, in which Asample was the absorbance of the sample and Acontrol was the absorbance of the phosphate buffer control without test samples. Acarbose was used as the positive control.
(§1) S1.4. DPPH radical scavenging assay […]

Assay [1] is described as follows: ABTS radical scavenging assay. The settings on record: mean ± SD (n = 3). Here is the method: as §1
S1.5. ABTS radical scavenging assay
The ABTS radical scavenging assay was used also to evaluate the antioxidant activity of compounds 1-11. The ABTS free radical cation (ABTS•+ )was manufactured by reacting ABTS stock solution (7 mM) with potassium persulphate

Assay [2] is described as follows: DPPH radical scavenging assay. The settings on record: mean ± SD (n = 3); NA: no activity. How it is done:
S1.4. DPPH radical scavenging assay
The DPPH radical scavenging assay was used to evaluate the antioxidant activity of compounds 1-11. In a 96-well microplate, 100 µL of DPPH solution (200 µM in ethanol) was added to 100 µL sample in ethanol at graded concentrations ranging from 7 to 500 µM. The mixture was incubated in the dark at room temperature for 30 min. The absorbance of the reaction mixture was measured at 517 nm using a microplate reader. The DPPH scavenging activity was calculated by the following formula: DPPH scavenging activity (%) = (Acontrol- Asample)/Acontrol×100%, where Acontrol was the absorbance of ethanol control without samples, Asample was the absorbance of sample. Ascorbic acid was used as the positive control in the […]
(The DPPH test is a chemical assay of radical scavenging.)

A further assay relates to α-Glucosidase from yeast. Put plainly: α-glucosidase inhibitory activity. In kind it is biochemical. The settings on record: for α-Glucosidase Inhibition at 0.1 mM: mean ± SD (n = 3), NA: no activity; for α-glucosidase inhibitory effects (in words): weaker than the positive control acarbose. Here is the method: S1. Determination of bioactivities […]
S1.2. Determination of α-glucosidase inhibitory activity […]
diluted with phosphate buffer (0.1 M, pH 6.8). […]
and 4-nitrophenyl α-D-glucopyranoside (pNPG) solution (50 µL, 5 mM) were mixed and incubated in a 96-well microplate at 37 °C for 5 min. α-Glucosidase from yeast (50 µL, 0.2 U/mL) was added and incubated at 37 °C for another 30 min. Finally, 50 µL of Na2CO3 (1M) was added to terminate the reaction. The absorbance of mixture was measured using a microplate reader at a wavelength 405 nm. […]
following equation: α-glucosidase inhibition (%) = (Acontrol- Asample)/Acontrol×100%, where Acontrolrepresented the absorbance of phosphate buffer control without test samples, Asample represented the absorbance of test samples. Acarbose was used as the […]

T1 sequence (P12276 2-2512 limits assumed): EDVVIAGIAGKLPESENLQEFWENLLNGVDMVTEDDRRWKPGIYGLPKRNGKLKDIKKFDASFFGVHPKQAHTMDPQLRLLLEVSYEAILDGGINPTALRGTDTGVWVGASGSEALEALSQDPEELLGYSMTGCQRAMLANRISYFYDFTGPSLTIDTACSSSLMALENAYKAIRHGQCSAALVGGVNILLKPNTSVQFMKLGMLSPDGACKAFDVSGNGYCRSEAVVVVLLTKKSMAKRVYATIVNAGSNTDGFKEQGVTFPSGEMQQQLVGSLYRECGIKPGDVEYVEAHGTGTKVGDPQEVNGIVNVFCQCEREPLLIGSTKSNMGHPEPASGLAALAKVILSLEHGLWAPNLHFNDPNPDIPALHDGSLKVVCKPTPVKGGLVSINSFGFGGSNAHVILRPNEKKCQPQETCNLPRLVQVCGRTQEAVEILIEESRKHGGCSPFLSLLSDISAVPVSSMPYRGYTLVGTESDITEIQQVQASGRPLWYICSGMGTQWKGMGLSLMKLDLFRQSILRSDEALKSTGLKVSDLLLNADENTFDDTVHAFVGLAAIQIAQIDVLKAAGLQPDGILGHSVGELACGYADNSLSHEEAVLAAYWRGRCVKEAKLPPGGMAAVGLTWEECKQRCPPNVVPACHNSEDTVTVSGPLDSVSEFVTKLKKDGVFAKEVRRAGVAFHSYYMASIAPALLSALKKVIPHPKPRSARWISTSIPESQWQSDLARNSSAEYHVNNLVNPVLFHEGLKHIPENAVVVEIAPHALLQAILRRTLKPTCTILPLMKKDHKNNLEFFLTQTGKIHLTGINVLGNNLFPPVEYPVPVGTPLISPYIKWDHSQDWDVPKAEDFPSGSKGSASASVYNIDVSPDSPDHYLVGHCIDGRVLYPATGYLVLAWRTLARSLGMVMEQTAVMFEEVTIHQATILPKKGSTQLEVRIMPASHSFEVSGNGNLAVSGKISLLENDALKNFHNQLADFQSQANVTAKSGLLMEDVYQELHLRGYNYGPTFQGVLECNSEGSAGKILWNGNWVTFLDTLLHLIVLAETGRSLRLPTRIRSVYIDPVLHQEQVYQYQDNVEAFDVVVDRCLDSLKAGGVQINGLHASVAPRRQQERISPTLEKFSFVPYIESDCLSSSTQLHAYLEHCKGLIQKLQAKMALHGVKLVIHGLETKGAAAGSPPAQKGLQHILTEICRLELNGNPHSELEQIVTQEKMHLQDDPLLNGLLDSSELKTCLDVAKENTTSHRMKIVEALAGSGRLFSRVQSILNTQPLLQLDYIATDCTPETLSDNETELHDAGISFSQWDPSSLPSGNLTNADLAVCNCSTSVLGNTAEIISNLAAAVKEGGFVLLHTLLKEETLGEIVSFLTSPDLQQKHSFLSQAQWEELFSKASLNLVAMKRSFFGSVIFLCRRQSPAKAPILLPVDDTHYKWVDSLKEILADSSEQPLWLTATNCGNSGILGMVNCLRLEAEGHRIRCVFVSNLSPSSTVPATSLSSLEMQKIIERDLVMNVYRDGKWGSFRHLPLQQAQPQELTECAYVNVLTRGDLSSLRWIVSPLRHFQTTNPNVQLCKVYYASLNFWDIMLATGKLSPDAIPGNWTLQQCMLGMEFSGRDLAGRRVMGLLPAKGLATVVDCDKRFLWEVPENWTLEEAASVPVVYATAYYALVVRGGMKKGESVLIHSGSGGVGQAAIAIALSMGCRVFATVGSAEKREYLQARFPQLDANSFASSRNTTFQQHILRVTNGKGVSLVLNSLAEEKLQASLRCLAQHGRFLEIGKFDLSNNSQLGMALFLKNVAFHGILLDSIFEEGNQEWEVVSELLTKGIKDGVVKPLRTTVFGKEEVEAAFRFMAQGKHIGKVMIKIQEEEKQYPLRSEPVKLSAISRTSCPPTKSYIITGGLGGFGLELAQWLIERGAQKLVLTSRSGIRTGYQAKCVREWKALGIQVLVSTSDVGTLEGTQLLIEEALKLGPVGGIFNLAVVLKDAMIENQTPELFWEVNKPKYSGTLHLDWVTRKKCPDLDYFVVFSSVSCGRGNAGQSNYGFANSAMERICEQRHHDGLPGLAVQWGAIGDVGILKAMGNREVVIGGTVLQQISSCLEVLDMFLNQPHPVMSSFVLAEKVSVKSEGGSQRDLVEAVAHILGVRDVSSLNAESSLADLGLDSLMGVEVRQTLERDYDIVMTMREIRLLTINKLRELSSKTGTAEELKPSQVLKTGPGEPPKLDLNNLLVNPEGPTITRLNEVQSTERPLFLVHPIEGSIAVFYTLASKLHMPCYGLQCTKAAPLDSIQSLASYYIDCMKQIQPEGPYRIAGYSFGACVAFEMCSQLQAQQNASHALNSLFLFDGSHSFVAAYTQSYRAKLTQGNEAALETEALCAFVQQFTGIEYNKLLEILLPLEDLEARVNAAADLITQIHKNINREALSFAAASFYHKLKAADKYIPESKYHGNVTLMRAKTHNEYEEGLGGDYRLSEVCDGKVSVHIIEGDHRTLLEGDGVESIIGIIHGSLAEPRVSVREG

The compound `CC1OC(OC2C(O)C(OCc3ccccc3)OC(CO)C2OC(=O)C=Cc2ccc(O)cc2)C(O)C(O)C1O` (stereo not drawn) [Compound 4] showed an IC50 on FAS of 6.49 ± 0.27 µM.
Turning to `CC1OC(OC2C(O)C(OCCc3ccc(O)cc3)OC(CO)C2OC(=O)C=Cc2ccc(O)cc2)C(O)C(O)C1O` (stereo not drawn) [Compound 10, osmanthuside D], in the assay with α-amylase, the “α-Amylase Inhibition at 0.1 mM” value came out at 26.1 ± 1.9 c % and the “α-amylase inhibitory effects (in words)” value is “moderate”. In addition, inhibition in assay [1] was half-maximal at 3.34 ± 0.02 µM (IC50). Also, in assay [2], the IC50 is over 250 µM. The “α-Glucosidase Inhibition at 0.1 mM” value with α-Glucosidase from yeast was determined as 19.3 ± 5.6 e %.
Regarding `CC1OC(OC2C(C)OC(OC3C(O)C(OCC(O)c4ccc(O)c(O)c4)OC(CO)C3OC(=O)C=Cc3ccc(O)cc3)C(O)C2O)C(O)C(O)C1O` (stereo not drawn) [Compound 2], the “α-Amylase Inhibition at 0.1 mM” value in the assay with α-amylase stood at 10.6 ± 2.3 f %. Moreover, the IC50 in assay [1] is 10.6 ± 0.48 µM; in assay [2], 43.2 ± 1.06 µM.
For the compound `CC1OC(OC2C(C)OC(OC3C(O)C(OCCc4ccc(O)cc4)OC(CO)C3OC(=O)C=Cc3ccc(O)cc3)C(O)C2O)C(O)C(O)C1O` (stereo not drawn) [Compound 8, cis-ligupurpuroside B], the IC50 is 4.17 ± 0.06 µM in assay [1] and over 250 µM in assay [2].
As to `C[C@@H]1O[C@@H](O[C@@H]2[C@@H](O)[C@@H](O)[C@H](O[C@@H]3[C@@H](O)[C@H](OCC(=O)c4ccc(O)c(O)c4)O[C@H](CO)[C@H]3OC(=O)/C=C/c3ccc(O)cc3)O[C@H]2C)[C@H](O)[C@H](O)[C@H]1O` [Compound 3, 2-(3,4-dihydroxyphenyl)-2-oxoethyl 3-O-[α-L-rhamnopyranosyl-(1→4)-α-L-rhamnopyranosyl]-4-O-(trans-p-coumaroyl)-O-β-D-glucopyranoside], in assay [1], 4.13 ± 0.06 µM corresponded to half-maximal inhibition (IC50). Also, the IC50 in assay [2] is 23.8 ± 0.89 µM. For the same compound, in the assay with α-Glucosidase from yeast, the “α-Glucosidase Inhibition at 0.1 mM” value was found to be 42.3 ± 8.7 bc % and the “α-glucosidase inhibitory effects (in words)” value is on record as “moderate”.
With `O=C1O[C@H]([C@@H](O)CO)C(O)=C1O` [L-(+)-ascorbic acid, reference compound], the IC50 stood at 10.1 ± 0.19 µM in assay [1] and 13.66 ± 0.13 µM in assay [2].
For `C[C@@H]1O[C@@H](O[C@@H]2[C@@H](O)[C@@H](O)[C@H](O[C@@H]3[C@@H](O)[C@H](OCCc4ccc(O)cc4)O[C@H](CO)[C@H]3OC(=O)/C=C/c3ccc(O)c(O)c3)O[C@H]2C)[C@H](O)[C@H](O)[C@H]1O` [Compound 9, ligurobustoside N], in the assay on α-amylase, the “α-Amylase Inhibition at 0.1 mM” value stood at 15.9 ± 3.1 e %. Moreover, the IC50 amounted to 2.68 ± 0.05 µM in assay [1], 29.2 ± 0.37 µM in assay [2] and 5.61 ± 0.44 µM on FAS. Moreover, in the assay on α-Glucosidase from yeast, the “α-Glucosidase Inhibition at 0.1 mM” value was 25.4 ± 4.1 d %.
For `CC1OC(OC2C(O)C(COC(=O)C=Cc3ccc(O)cc3)OC(OCCc3ccc(O)cc3)C2O)C(O)C(O)C1O` (stereo not drawn) [Compound 11, (Z)-osmanthuside B6], the “α-Amylase Inhibition at 0.1 mM” value in the assay with α-amylase came out at 23.5 ± 1.7 c %. Moreover, in the assay with α-amylase, the “α-amylase inhibitory effects (in words)” value is reported as “moderate”. In addition, the IC50 in assay [1] was 3.83 ± 0.05 µM; in assay [2] it was over 250 µM; at FAS it was 4.55 ± 0.35 µM.
For `C[C@@H]1O[C@@H](O[C@@H]2[C@@H](O)[C@H](OCc3ccccc3)O[C@H](COC(=O)/C=C/c3ccc(O)cc3)[C@H]2O)[C@H](O)[C@H](O)[C@H]1O` [Compound 5, benzyl 3-O-(α-L-rhamnopyranosyl)-6-O-(trans-p-coumaroyl)-O-β-D-glucopyranoside], the IC50 in assay [1] is 4.86 ± 0.06 µM. The same compound returned a half-inhibitory concentration (IC50) in assay [2] of over 250 µM. In addition, in the assay with α-Glucosidase from yeast, the “α-Glucosidase Inhibition at 0.1 mM” value is listed as 45.1 ± 2.5 b % and the “α-glucosidase inhibitory effects (in words)” value is given as “moderate”.
Take `C[C@@H]1O[C@@H](O[C@@H]2[C@@H](O)[C@@H](O)[C@H](O[C@@H]3[C@@H](O)[C@H](OCCc4ccc(O)cc4)O[C@H](CO)[C@H]3OC(=O)/C=C/c3ccc(O)cc3)O[C@H]2C)[C@H](O)[C@H](O)[C@H]1O` [Compound 7, ligupurpuroside B]: the “α-Amylase Inhibition at 0.1 mM” value in the assay with α-amylase was found to be 19.9 ± 1.8 d %. Further, the values for the IC50 in assay [1] and in assay [2] were 2.75 ± 0.09 µM and over 250 µM, respectively.
In assay [1], `C[C@@H]1O[C@@H](O[C@@H]2[C@@H](O)[C@H](OCc3ccccc3)O[C@H](COC(=O)/C=C\c3ccc(O)cc3)[C@H]2O)[C@H](O)[C@H](O)[C@H]1O` [Compound 6, benzyl 3-O-(α-L-rhamnopyranosyl)-6-O-(cis-p-coumaroyl)-O-β-D-glucopyranoside] returned an IC50 of 20.7 ± 0.22 µM. Further, in the assay with α-Glucosidase from yeast, the “α-Glucosidase Inhibition at 0.1 mM” value worked out at 36.5 ± 1.5 c %.
